{"source": "the NIST ThermoML archive (doi:10.1016/j.tca.2016.03.025)", "key": {"[1]": {"details": "Crystal; DTA"}, "[2]": {"test": "Molar enthalpy of transition or fusion", "details": "Crystal; DSC"}}, "note": "Numbers after ± are expanded uncertainties.", "data": [{"smiles": "CCC(=O)O[C@](Cc1ccccc1)(c1ccccc1)[C@H](C)CN(C)C.Cl", "note": "[Dextropropoxyphene hydrochloride]", "values": [{"measurement": "Normal melting temperature", "setting": "[1]", "value": "168 ± 2", "unit": "°C"}, {"measurement": "Molar enthalpy of transition or fusion", "setting": "[2]", "value": "7.6 ± 0.382", "unit": "kcal/mol"}]}, {"smiles": "CC(=O)Nc1ccc(O)cc1", "note": "[N-acetyl-p-aminophenol]", "values": [{"measurement": "Normal melting temperature", "setting": "[1]", "value": "170.2 ± 2", "unit": "°C"}, {"measurement": "Molar enthalpy of transition or fusion", "setting": "[2]", "value": "6.51 ± 0.196", "unit": "kcal/mol"}]}, {"smiles": "CN[C@@H](C)[C@@H](O)c1ccccc1.Cl", "note": "[Pseudoephedrine hydrochloride]", "values": [{"measurement": "Normal melting temperature", "setting": "[1]", "value": "185 ± 2", "unit": "°C"}, {"measurement": "Molar enthalpy of transition or fusion", "setting": "[2]", "value": "6.54 ± 0.237", "unit": "kcal/mol"}]}, {"smiles": "COc1cccc([C@@]2(O)CCCC[C@@H]2CN(C)C)c1.Cl", "note": "[tramadol hydrochloride]", "values": [{"measurement": "Normal melting temperature", "setting": "[1]", "value": "184.1 ± 2", "unit": "°C"}, {"measurement": "Molar enthalpy of transition or fusion", "setting": "[2]", "value": "7.07 ± 0.311", "unit": "kcal/mol"}]}]}
